One experiment concerns the target PAK3 (Homo sapiens, UniProt O75914). Put plainly: Z'Lyte fluorescence-based (FRET) kinase assay, PAK3. It counts as biochemical. The note with it: 100 μM ATP (Km apparent), 1 hr room temperature, 1% DMSO. As to the method: (§1) A fluorescence-based assay format is used to determine IC50 values of test compounds in vitro. Purified PAK kinase is incubated with ATP, and a test compound at various concentrations and a substrate peptide containing two fluorophores. In a second step, the reaction mix is incubated with a site-specific protease that cleaves non-phosphorylated but not phosphorylated substrate peptide, disrupting the FRET signal generated by the two fluorophores in the cleaved peptide (Z′Lyte™ Kinase assay platform; Life Technologies).
(§2) Reagents: 50 mM HEPES, pH 7.5; 0.01% BRIJ-35; 10 mM MgCl2; 1 mM EGTA, 2 uM substrate peptide Ser/Thr20 (proprietary Life Technologies Sequence), PAK enzyme [2.42-30.8 ng for PAK1, 0.29-6 ng for PAK2, 1.5-20 ng for PAK3 and 0.1-0.86 ng for PAK4; actual enzyme amounts depend on lot activity of the enzyme preparation]
(§3) Test compounds are dissolved in DMSO at various concentrations; the final DMSO concentration in the assay reaction is 1%.
(§4) ATP concentration at Km apparent is used in the assay [50 μM ATP for PAK1 assay, 75 μM ATP for PAK2 assay, 100 μM ATP for PAK3 assay, 5 μM ATP for PAK-4 assay] in a total assay volume of […] Assay reactions are incubated at room temperature for 1 hr. Following the kinase reaction, 5 μl of 1:256 dilution of development solution A (Life Technologies) is added and the reaction mix is incubated for an additional 1 hr at room temperature.
(§5) Plates are analyzed in a standard fluorescence plate reader (Tecan or equivalent) using an excitation wavelength of 400 nm and emission wavelengths of 445 nm and 520 nm. Inhibition of kinase reaction is determined by emission ratio=emission@445 nm/emission@520 nm

In the next experiment the target is PAK4 (Homo sapiens, UniProt O96013). Nature of the experiment: Z'Lyte fluorescence-based (FRET) kinase assay, PAK4. In kind it is biochemical. The conditions noted are these: 5 μM ATP (Km apparent), 1 hr room temperature, 1% DMSO. As to the method:
as §1, §2, §3, §4, §5

Another experiment concerns PAK1, PAK2, PAK3, PAK-4. Nature of the experiment: PAK isoform inhibition profile of example compounds. In kind it is biochemical. The conditions noted are these: classification of example compounds in the description; underlying IC50 data in Table 8.
Text: In some embodiments, the PAK inhibitor is a Group I PAK inhibitor that inhibits, for example, one or more Group I PAK polypeptides, for example, PAK1, PAK2, and/or PAK3. […] In some embodiments, the PAK inhibitor is a PAK2 inhibitor. In some embodiments, the PAK inhibitor is a PAK3 inhibitor. In some embodiments, the PAK inhibitor is a mixed PAK1/PAK3 inhibitor. […] In some embodiments, the PAK inhibitor is a Group II PAK inhibitor that inhibits one or more Group II PAK polypeptides, for example PAK-4, PAK5, and/or PAK6. In some embodiments, the PAK inhibitor is a PAK4 inhibitor. In some embodiments, the PAK inhibitor is a PAK5 inhibitor. In some embodiments, the PAK inhibitor is a PAK6 inhibitor.
as §1, §2, §3, §4, §5

The target in a further experiment is PAK2 (Homo sapiens, UniProt Q13177). Nature of the experiment: Z'Lyte fluorescence-based (FRET) kinase assay, PAK2. In kind it is biochemical. The note with it: 75 μM ATP (Km apparent), 1 hr room temperature, 1% DMSO. As for the experimental part:
as §1, §2, §3, §4, §5

Another experiment concerns the target PAK1 (Homo sapiens, UniProt Q13153). Nature of the experiment: Z'Lyte fluorescence-based (FRET) kinase assay, PAK1. It counts as biochemical. The conditions noted are these: 50 μM ATP (Km apparent), 1 hr room temperature, 1% DMSO. As for the experimental part:
as §1, §2, §3, §4, §5

For experiment [1], the system named is Wistar rat pups injected with tetanus toxin. The conditions noted are these: in vivo.

The values below come from patent publication US8674095B2, “Compounds for treating neuropsychiatric conditions” (Afraxis Holdings, Inc., priority 2008, dated 2014).

Bounds are passed on as bounds.

PAK2, sequence (Q13177 whole entry): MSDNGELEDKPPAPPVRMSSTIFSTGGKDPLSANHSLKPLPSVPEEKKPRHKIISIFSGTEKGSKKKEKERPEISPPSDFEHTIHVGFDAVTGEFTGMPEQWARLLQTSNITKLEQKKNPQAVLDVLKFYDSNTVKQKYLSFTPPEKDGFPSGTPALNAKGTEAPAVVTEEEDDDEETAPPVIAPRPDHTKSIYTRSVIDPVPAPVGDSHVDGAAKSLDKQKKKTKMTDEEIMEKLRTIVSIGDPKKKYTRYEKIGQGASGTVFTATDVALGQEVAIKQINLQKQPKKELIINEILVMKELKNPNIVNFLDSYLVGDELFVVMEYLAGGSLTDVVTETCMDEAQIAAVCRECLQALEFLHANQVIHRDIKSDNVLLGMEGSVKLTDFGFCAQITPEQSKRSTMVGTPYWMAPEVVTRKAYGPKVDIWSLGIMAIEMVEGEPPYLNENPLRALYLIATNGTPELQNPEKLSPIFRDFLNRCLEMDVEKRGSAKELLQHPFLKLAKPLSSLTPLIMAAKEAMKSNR
PAK4, sequence (O96013 whole entry): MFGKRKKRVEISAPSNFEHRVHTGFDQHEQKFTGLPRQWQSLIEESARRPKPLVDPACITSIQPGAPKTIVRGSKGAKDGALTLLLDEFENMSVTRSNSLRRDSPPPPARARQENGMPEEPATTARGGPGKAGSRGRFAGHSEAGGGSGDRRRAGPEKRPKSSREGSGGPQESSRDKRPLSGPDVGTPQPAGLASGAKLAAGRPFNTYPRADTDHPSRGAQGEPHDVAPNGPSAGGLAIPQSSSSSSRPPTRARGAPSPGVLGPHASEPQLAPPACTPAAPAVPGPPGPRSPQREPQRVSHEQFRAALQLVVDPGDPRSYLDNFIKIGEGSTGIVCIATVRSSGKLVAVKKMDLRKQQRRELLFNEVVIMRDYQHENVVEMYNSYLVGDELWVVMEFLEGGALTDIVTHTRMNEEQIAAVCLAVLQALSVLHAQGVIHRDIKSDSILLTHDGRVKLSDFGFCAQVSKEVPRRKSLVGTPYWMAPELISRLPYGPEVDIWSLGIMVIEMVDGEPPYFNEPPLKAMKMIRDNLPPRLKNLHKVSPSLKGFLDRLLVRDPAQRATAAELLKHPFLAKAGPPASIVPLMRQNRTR
PAK1, sequence (Q13153 whole entry): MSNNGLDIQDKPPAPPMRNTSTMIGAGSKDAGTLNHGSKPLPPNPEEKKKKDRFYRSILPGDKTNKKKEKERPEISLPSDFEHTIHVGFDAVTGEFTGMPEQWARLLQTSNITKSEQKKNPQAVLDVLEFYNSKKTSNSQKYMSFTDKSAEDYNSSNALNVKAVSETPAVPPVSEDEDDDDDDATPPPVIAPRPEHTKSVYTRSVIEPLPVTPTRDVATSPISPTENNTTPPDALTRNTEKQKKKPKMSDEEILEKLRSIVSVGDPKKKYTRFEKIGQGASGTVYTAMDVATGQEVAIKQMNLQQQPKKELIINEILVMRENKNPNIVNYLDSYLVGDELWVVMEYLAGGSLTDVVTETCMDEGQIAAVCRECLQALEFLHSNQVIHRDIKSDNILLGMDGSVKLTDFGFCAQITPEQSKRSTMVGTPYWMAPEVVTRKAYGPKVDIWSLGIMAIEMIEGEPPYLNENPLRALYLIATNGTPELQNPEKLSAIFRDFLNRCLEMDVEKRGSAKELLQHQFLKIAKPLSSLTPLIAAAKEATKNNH
PAK3, sequence (O75914 whole entry): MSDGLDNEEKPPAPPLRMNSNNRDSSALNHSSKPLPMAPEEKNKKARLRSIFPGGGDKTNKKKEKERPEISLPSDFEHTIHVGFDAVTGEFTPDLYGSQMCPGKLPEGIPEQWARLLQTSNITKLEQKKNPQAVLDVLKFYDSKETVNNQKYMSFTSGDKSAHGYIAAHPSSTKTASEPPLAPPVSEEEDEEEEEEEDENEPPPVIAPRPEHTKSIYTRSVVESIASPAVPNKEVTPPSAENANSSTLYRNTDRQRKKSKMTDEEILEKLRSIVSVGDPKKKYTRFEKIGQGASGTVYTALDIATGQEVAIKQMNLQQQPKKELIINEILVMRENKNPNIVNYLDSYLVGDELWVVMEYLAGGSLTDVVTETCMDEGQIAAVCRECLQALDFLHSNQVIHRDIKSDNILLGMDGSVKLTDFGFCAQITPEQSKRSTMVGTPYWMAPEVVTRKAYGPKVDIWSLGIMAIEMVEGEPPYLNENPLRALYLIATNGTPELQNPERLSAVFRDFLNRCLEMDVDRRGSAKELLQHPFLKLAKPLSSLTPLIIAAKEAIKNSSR

As for `O=c1ccc2cnc(Nc3ccc(N4CCNCC4)c(F)c3)nc2n1Cc1ccccc1-c1cccs1` [Compound 78], the IC50 at PAK3, at PAK4, on PAK2 and at PAK1 was less than 1000 nM in each case. Also, in the experiment on PAK1, PAK2, PAK3, PAK-4, the “PAK inhibitor type (isoform profile)” value is listed as “mixed PAK1/PAK2/PAK3/PAK-4 inhibitor”.
Regarding `CN1CCN(c2ccc(Nc3ncc4ccc(=O)n([C@H]5CCCc6ccccc65)c4n3)cc2)CC1` [Compound 12], the IC50 (commonly the concentration at which inhibition is half-maximal) at PAK3 was 1000 to 10000 nM; at PAK4 it was 1000 to 10000 nM; at PAK2, 1000 to 10000 nM; on PAK1 it was less than 1000 nM. In addition, in the experiment on PAK1, PAK2, PAK3, PAK-4, the “PAK inhibitor type (isoform profile)” value is given as “PAK1 inhibitor”. In experiment [1], the Effect on seizures result is “reduce the frequency and severity of seizures”.
For `CN1CCN(c2ccc(Nc3ncc4ccc(=O)n(Cc5ccccc5C5CC5)c4n3)cc2)CC1` [Compound 81, 8-(2-cyclopropylbenzyl)-2-(4-(4-methylpiperazin-1-yl)phenylamino)pyrido[2,3-d]pyrimidin-7(8H)-one], the half-maximal inhibitory concentration (IC50) at PAK3, at PAK4, on PAK2 and on PAK1 was less than 1000 nM in each case. Besides, the “PAK inhibitor type (isoform profile)” value in the experiment on PAK1, PAK2, PAK3, PAK-4 is reported as “mixed PAK1/PAK2/PAK3/PAK-4 inhibitor”.
For `NCCNc1ccc(-c2ccnc(Nc3ccc(N4CCNCC4)cc3)n2)cn1` [Compound 111], the IC50 at PAK3 is 1000 to 10000 nM; on PAK4 it was less than 1000 nM; on PAK2 it was 1000 to 10000 nM; at PAK1 it was less than 1000 nM. Further, the “PAK inhibitor type (isoform profile)” value with PAK1, PAK2, PAK3, PAK-4 is given as “mixed PAK1/PAK-4 inhibitor”.
Consider `O=c1ccc2cnc(Nc3ccc(N4CCNCC4)c(F)c3)nc2n1Cc1ccccc1C(F)(F)F` [Compound 62], for which the concentration for half-maximal inhibition (IC50) on PAK3, on PAK4, at PAK2 and on PAK1 was less than 1000 nM each time. Further, the “PAK inhibitor type (isoform profile)” value in the experiment on PAK1, PAK2, PAK3, PAK-4 was “mixed PAK1/PAK2/PAK3/PAK-4 inhibitor”.
For the compound `CN1CCN(c2ccc(Nc3ncc4ccc(=O)n(Cc5ccccc5S(C)(=O)=O)c4n3)cc2)CC1` [Compound 72], the IC50 on PAK3, at PAK4, on PAK2 and at PAK1 was less than 1000 nM in each case. The “PAK inhibitor type (isoform profile)” value in the experiment on PAK1, PAK2, PAK3, PAK-4 is “mixed PAK1/PAK2/PAK3/PAK-4 inhibitor”.
In the case of `CN1CCN(c2ccc(Nc3ncc4ccc(=O)n(Cc5ccccc5S(=O)(=O)N5CCOCC5)c4n3)cc2)CC1` [Compound 74], the half-maximal inhibitory concentration (IC50) at PAK3, on PAK4, on PAK2 and on PAK1 was less than 1000 nM throughout. For the same compound, the “PAK inhibitor type (isoform profile)” value with PAK1, PAK2, PAK3, PAK-4 is “mixed PAK1/PAK2/PAK3/PAK-4 inhibitor”.
On to `CN1CCN(c2ccc(Nc3ncc4ccc(=O)n(Cc5c(F)cccc5Cl)c4n3)cc2)CC1` [Compound 53], for which the IC50 on PAK3, on PAK4, at PAK2 and on PAK1 was less than 1000 nM in each case. For the same compound, the “PAK inhibitor type (isoform profile)” value with PAK1, PAK2, PAK3, PAK-4 was “mixed PAK1/PAK2/PAK3/PAK-4 inhibitor”.
On to `Cc1noc(-c2ccccc2Cn2c(=O)ccc3cnc(Nc4ccc(N5CCNCC5)c(F)c4)nc32)n1` [Compound 80], for which the IC50 on PAK3 was 1000 to 10000 nM; at PAK4 it was 1000 to 10000 nM; at PAK2 it was 1000 to 10000 nM; at PAK1, less than 1000 nM. Besides, in the experiment with PAK1, PAK2, PAK3, PAK-4, the “PAK inhibitor type (isoform profile)” value is “PAK1 inhibitor”.
Consider `CN1CCN(c2ccc(Nc3ncc4ccc(=O)n(Cc5c(F)cccc5Br)c4n3)cc2)CC1` [Compound 79], for which the half-inhibitory concentration (IC50) at PAK3, at PAK4, at PAK2 and at PAK1 was less than 1000 nM each time. For the same compound, the “PAK inhibitor type (isoform profile)” value in the experiment on PAK1, PAK2, PAK3, PAK-4 is listed as “mixed PAK1/PAK2/PAK3/PAK-4 inhibitor”.
`CN1CCN(c2ccc(Nc3ncc4ccc(=O)n(Cc5c(Cl)cccc5Br)c4n3)cc2)CC1` [Compound 71]: the IC50 on PAK3, at PAK4, at PAK2 and on PAK1 was less than 1000 nM throughout. In addition, the “PAK inhibitor type (isoform profile)” value in the experiment on PAK1, PAK2, PAK3, PAK-4 is on record as “mixed PAK1/PAK2/PAK3/PAK-4 inhibitor”.
As to `Cc1c(F)cccc1Cn1c(=O)ccc2cnc(Nc3ccc(N4CCN(C)CC4)cc3)nc21` [Compound 49], the 50% inhibitory concentration (IC50) is greater than 10000 nM at PAK3, 1000 to 10000 nM at PAK4, 1000 to 10000 nM at PAK2 and less than 1000 nM on PAK1. Moreover, the “PAK inhibitor type (isoform profile)” value in the experiment on PAK1, PAK2, PAK3, PAK-4 is on record as “PAK1 inhibitor”.
Consider `Cc1ccc(F)cc1Cn1c(=O)ccc2cnc(Nc3ccc(N4CCN(C)CC4)cc3)nc21` [Compound 59], for which the IC50 is 1000 to 10000 nM at PAK3, less than 1000 nM on PAK4, 1000 to 10000 nM at PAK2 and less than 1000 nM on PAK1. Moreover, the “PAK inhibitor type (isoform profile)” value with PAK1, PAK2, PAK3, PAK-4 is “mixed PAK1/PAK-4 inhibitor”.
On to `Cc1noc(-c2ccccc2Cn2c(=O)ccc3cnc(Nc4ccc(N5CCN(C)CC5)cc4)nc32)n1` [Compound 75], for which the half-maximal inhibitory concentration (IC50) is 1000 to 10000 nM at PAK3, 1000 to 10000 nM on PAK4, 1000 to 10000 nM on PAK2 and less than 1000 nM on PAK1. The “PAK inhibitor type (isoform profile)” value with PAK1, PAK2, PAK3, PAK-4 is reported as “PAK1 inhibitor”.
With `Cc1cccc(F)c1Cn1c(=O)ccc2cnc(Nc3ccc(N4CCN(C)CC4)cc3)nc21` [Compound 65], the half-inhibitory concentration (IC50) on PAK3, on PAK4, at PAK2 and on PAK1 was less than 1000 nM throughout. Also, the “PAK inhibitor type (isoform profile)” value in the experiment with PAK1, PAK2, PAK3, PAK-4 is “mixed PAK1/PAK2/PAK3/PAK-4 inhibitor”.
Turning to `CN1CCN(c2ccc(Nc3ncc4ccc(=O)n(Cc5ccccc5Br)c4n3)cc2)CC1` [Compound 27, 8-(2-bromobenzyl)-2-(4-(4-methylpiperazin-1-yl)phenylamino)pyrido[2,3-d]pyrimidin-7(8H)-one], the concentration for half-maximal inhibition (IC50) at PAK3, at PAK4, on PAK2 and on PAK1 was less than 1000 nM throughout. In the experiment on PAK1, PAK2, PAK3, PAK-4, the “PAK inhibitor type (isoform profile)” value is given as “mixed PAK1/PAK2/PAK3/PAK-4 inhibitor”.
As to `CN1CCN(c2ccc(Nc3ncc4ccc(=O)n(Cc5ccccc5N5CCOCC5)c4n3)cc2)CC1` [Compound 73], the 50% inhibitory concentration (IC50) on PAK3, at PAK4, at PAK2 and at PAK1 was less than 1000 nM in each case. In addition, the “PAK inhibitor type (isoform profile)” value in the experiment on PAK1, PAK2, PAK3, PAK-4 is listed as “mixed PAK1/PAK2/PAK3/PAK-4 inhibitor”.
